Results from patent US11439709B2, “Phospholipid ether analogs as cancer-targeting drug vehicles” (Cellectar Biosciences, Inc., priority 2014, dated 2022).
Each block holds one compound with its values, some of them ahead of it.

Key:
[1] = system: MDA-MB-468, NCI-H1299, NCI-H460, Capan-2, MiaPaCa-1, HT29, HCT116 and PC-3 cancer cell lines; experiment: Cell viability of the cancer cell line panel (result in words); format: cell-based; conditions: eight cancer cell lines, serial concentrations
Experimental: (§1) The cell lines were then measured for cell viability and reported as IC50 for each treatment.

22RV1 cells = experiment: Annexin V / PI flow cytometry, 22RV1 cells; format: cell-based; conditions: GEL for 48 hours
Experimental: (§2) Annexin V and PI ([…]) staining by flow cytometry was utilized to determine percentages of live, early apoptotic, late apoptotic, and necrotic cells. In short, cells were treated with cytotoxic agents and stained with an Annexin V/P1 labeling kit (Life Technologies). Cells were analyzed on an LSRII flow cytometer (BD Biosciences). As shown in Tables 3-9, cells were classified as: Live (Annexin V negative, PI negative), Early apoptotic (Annexin V positive, PI negative), Late apoptotic (Annexin V positive, PI positive), and Necrotic. (Annexin V negative, PI positive). […] Annexin V (attached to AlexaFluor 488) is shown on the x-axis, while PI is shown on the y-axis. The lower left quadrant indicates live cells, the upper left quadrant indicates necrotic cells, the upper right quadrant indicates late apoptotic cells and the lower right quadrant indicates early apoptotic cells. Debris was eliminated from this analysis.

MDA-MB-468 cells = experiment: Annexin V / PI flow cytometry, MDA-MB-468 cells
Experimental: as §2

COLO 829 cells = experiment: Annexin V / PI flow cytometry, COLO 829 cells; format: cell-based
Experimental: as §2

PANC-1 cells = experiment: Annexin V / PI flow cytometry, PANC-1 cells; format: cell-based; conditions: GEL for 48 hours
Experimental: as §2

HT29 (Colorectal) = experiment: cells; format: cell-based
Experimental: as §1

MDA-MB-468 (Breast) = experiment: cells; format: cell-based; conditions: cell viability
Experimental: as §1

PC-3 (Prostate) = experiment: cells; format: cell-based; conditions: cell viability
Experimental: as §1

Capan-2 (Pancreas) = experiment: cells; format: cell-based; conditions: cell viability
Experimental: as §1

NCI-H1299 (Lung) = experiment: cells; format: cell-based; conditions: NCI-HI1299 (Lung), cell viability
Experimental: as §1

HCT116 (Colorectal) = experiment: cells; format: cell-based
Experimental: as §1

MiaPaCa-1 (Pancreas) = experiment: cells; format: cell-based; conditions: cell viability
Experimental: as §1

NCI-H460 (Lung) = experiment: cells; format: cell-based; conditions: cell viability
Experimental: as §1

[2] = 1 uM, GEL for 48 hours, Table 4 titled 72 Hours
[3] = 100 nM, GEL for 48 hours, Table 5
[4] = 1 uM, GEL for 48 hours, Table 5
[5] = 100 nM, PTX for 24 hours, Table 3 titled 72 Hours
[6] = 1 uM, PTX for 24 hours, Table 3 titled 72 Hours

SMILES: CC(=O)O[C@H]1C(=O)[C@]2(C)[C@@H](OC(=O)NCCCC(=O)Nc3ccc(CCCCCCCCCCCCCCCCCCOP(=O)([O-])OCC[N+](C)(C)C)cc3)C[C@H]3OC[C@@]3(OC(C)=O)[C@H]2[C@H](OC(=O)c2ccccc2)[C@]2(O)C[C@H](OC(=O)[C@H](O)[C@@H](NC(=O)c3ccccc3)c3ccccc3)C(C)=C1C2(C)C [CLR1602]
reduction of cancer cell line viability [1]: not capable of significantly reducing cancer cell line viability

SMILES: COC1=C2C[C@@H](C)C[C@H](OC)[C@H](O)[C@@H](C)/C=C(\C)[C@H](OC(N)=O)[C@@H](OC)/C=C\C=C(/C)C(=O)NC(=CC1=O)C2=O [GEL, geldanamycin]
Early Apoptotic (22RV1 cells; 100 nM): 5.09 % of total cells
Late Apoptotic (22RV1 cells; 100 nM): 28.4 % of total cells
Live (cell viability) (22RV1 cells; 100 nM): 19.4 % of total cells
Necrotic (22RV1 cells; 100 nM): 47.1 % of total cells
Early Apoptotic (22RV1 cells; 1 uM): 6.22 % of total cells
Late Apoptotic (22RV1 cells; 1 uM): 19.1 % of total cells
Live (cell viability) (22RV1 cells; 1 uM): 28.1 % of total cells
Necrotic (22RV1 cells; 1 uM): 46.6 % of total cells
Early Apoptotic (MDA-MB-468 cells; [2]): 19.6 % of total cells
Late Apoptotic (MDA-MB-468 cells; [2]): 37.9 % of total cells
Live (cell viability) (MDA-MB-468 cells; [2]): 26.2 % of total cells
Necrotic (MDA-MB-468 cells; [2]): 16.3 % of total cells
Early Apoptotic (COLO 829 cells; 100 nM, 48 hrs (Table 9)): 12.2 % of total cells
Late Apoptotic (COLO 829 cells; 100 nM, 48 hrs (Table 9)): 29 % of total cells
Live (cell viability) (COLO 829 cells; 100 nM, 48 hrs (Table 9)): 36.1 % of total cells
Necrotic (COLO 829 cells; 100 nM, 48 hrs (Table 9)): 22.7 % of total cells
Early Apoptotic (COLO 829 cells; [3]): 21.9 % of total cells
Late Apoptotic (COLO 829 cells; [3]): 40.8 % of total cells
Live (cell viability) (COLO 829 cells; [3]): 32.4 % of total cells
Necrotic (COLO 829 cells; [3]): 4.9 % of total cells
Early Apoptotic (COLO 829 cells; 1 uM, 48 hrs (Table 9)): 14.4 % of total cells
Late Apoptotic (COLO 829 cells; 1 uM, 48 hrs (Table 9)): 38.3 % of total cells
Live (cell viability) (COLO 829 cells; 1 uM, 48 hrs (Table 9)): 24.6 % of total cells
Necrotic (COLO 829 cells; 1 uM, 48 hrs (Table 9)): 22.7 % of total cells
Early Apoptotic (COLO 829 cells; [4]): 21.4 % of total cells
Late Apoptotic (COLO 829 cells; [4]): 53.7 % of total cells
Live (cell viability) (COLO 829 cells; [4]): 18.6 % of total cells
Necrotic (COLO 829 cells; [4]): 6.42 % of total cells
Early Apoptotic (PANC-1 cells; 100 nM): 4.68 % of total cells
Late Apoptotic (PANC-1 cells; 100 nM): 12.6 % of total cells
Live (cell viability) (PANC-1 cells; 100 nM): 23.3 % of total cells
Necrotic (PANC-1 cells; 100 nM): 59.4 % of total cells
Early Apoptotic (PANC-1 cells; 1 uM): 1.93 % of total cells
Late Apoptotic (PANC-1 cells; 1 uM): 12.8 % of total cells
Live (cell viability) (PANC-1 cells; 1 uM): 18.9 % of total cells
Necrotic (PANC-1 cells; 1 uM): 66.4 % of total cells

SMILES: CC(=O)O[C@H]1C(=O)[C@@]2(C)[C@H]([C@H](OC(=O)c3ccccc3)[C@]3(O)C[C@H](OC(=O)[C@H](OC(=O)CCCC(=O)Nc4ccc(CCCCCCCCCCCCCCCCCCOP(=O)([O-])OCC[N+](C)(C)C)cc4)[C@@H](NC(=O)c4ccccc4)c4ccccc4)C(C)=C1C3(C)C)[C@]1(OC(C)=O)CO[C@@H]1C[C@@H]2O [CLR1601]
reduction of cancer cell line viability [1]: capable of reducing cell viability
IC50 (HT29 (Colorectal); cell viability): 92.2 nM
IC50 (MDA-MB-468 (Breast)): 3.77 nM
IC50 (PC-3 (Prostate)): 34.4 nM
IC50 (Capan-2 (Pancreas)): 56.7 nM
IC50 (NCI-H1299 (Lung)): 60.3 nM
IC50 (HCT116 (Colorectal); cell viability): 7.6 nM
IC50 (MiaPaCa-1 (Pancreas)): 37.3 nM
IC50 (NCI-H460 (Lung)): 29.5 nM
Early Apoptotic (MDA-MB-468 cells; 1 uM, 48 hrs (Table 8)): 1.49 % of total cells
Late Apoptotic (MDA-MB-468 cells; 1 uM, 48 hrs (Table 8)): 6 % of total cells
Live (cell viability) (MDA-MB-468 cells; 1 uM, 48 hrs (Table 8)): 79.4 % of total cells
Necrotic (MDA-MB-468 cells; 1 uM, 48 hrs (Table 8)): 13.1 % of total cells
Early Apoptotic (MDA-MB-468 cells; 1 uM, 72 hrs): 9.8 % of total cells
Late Apoptotic (MDA-MB-468 cells; 1 uM, 72 hrs): 57.5 % of total cells
Live (cell viability) (MDA-MB-468 cells; 1 uM, 72 hrs): 17 % of total cells
Necrotic (MDA-MB-468 cells; 1 uM, 72 hrs): 15.8 % of total cells
Early Apoptotic (MDA-MB-468 cells; 5 uM, 72 hrs): 2.71 % of total cells
Late Apoptotic (MDA-MB-468 cells; 5 uM, 72 hrs): 57.9 % of total cells
Live (cell viability) (MDA-MB-468 cells; 5 uM, 72 hrs): 17.8 % of total cells
Necrotic (MDA-MB-468 cells; 5 uM, 72 hrs): 21.6 % of total cells

IC50 (HT29 (Colorectal); Homo sapiens, HT-29, cell viability): 1.07 nM
IC50 (MDA-MB-468 (Breast); Homo sapiens): 1.9 nM
IC50 (PC-3 (Prostate)): 0.9 nM
IC50 (NCI-H1299 (Lung); Homo sapiens, NCI-H1299): 1.82 nM
IC50 (HCT116 (Colorectal); Homo sapiens, HCT-116, cell viability): 0.87 nM
IC50 (MiaPaCa-1 (Pancreas)): 1.32 nM
IC50 (NCI-H460 (Lung); Homo sapiens): 1.66 nM
SMILES: CC(=O)O[C@H]1C(=O)[C@@]2(C)[C@H]([C@H](OC(=O)c3ccccc3)[C@]3(O)C[C@H](OC(=O)[C@H](O)[C@@H](NC(=O)c4ccccc4)c4ccccc4)C(C)=C1C3(C)C)[C@]1(OC(C)=O)CO[C@@H]1C[C@@H]2O [Paclitaxel, paclitaxel]
IC50 (Capan-2 (Pancreas); Homo sapiens): 7.91 nM
Early Apoptotic (MDA-MB-468 cells; 100 nM, 48 hrs (Table 8)): 2.47 % of total cells
Late Apoptotic (MDA-MB-468 cells; 100 nM, 48 hrs (Table 8)): 5.54 % of total cells
Live (cell viability) (MDA-MB-468 cells; 100 nM, 48 hrs (Table 8)): 77.9 % of total cells
Necrotic (MDA-MB-468 cells; 100 nM, 48 hrs (Table 8)): 14.1 % of total cells
Early Apoptotic (MDA-MB-468 cells; [5]): 5.9 % of total cells
Late Apoptotic (MDA-MB-468 cells; [5]): 31.4 % of total cells
Live (cell viability) (MDA-MB-468 cells; [5]): 53.8 % of total cells
Necrotic (MDA-MB-468 cells; [5]): 8.89 % of total cells
Early Apoptotic (MDA-MB-468 cells; 1 uM, 48 hrs (Table 8)): 1.97 % of total cells
Late Apoptotic (MDA-MB-468 cells; 1 uM, 48 hrs (Table 8)): 9.18 % of total cells
Live (cell viability) (MDA-MB-468 cells; 1 uM, 48 hrs (Table 8)): 73.3 % of total cells
Necrotic (MDA-MB-468 cells; 1 uM, 48 hrs (Table 8)): 15.6 % of total cells
Early Apoptotic (MDA-MB-468 cells; [6]): 5.5 % of total cells
Late Apoptotic (MDA-MB-468 cells; [6]): 34.8 % of total cells
Live (cell viability) (MDA-MB-468 cells; [6]): 48.9 % of total cells
Necrotic (MDA-MB-468 cells; [6]): 10.8 % of total cells

SMILES: CC(=O)O[C@H]1C(=O)[C@@]2(C)[C@H]([C@H](OC(=O)c3ccccc3)[C@]3(O)C[C@H](OC(=O)[C@H](OC(=O)OCCCCC(=O)Nc4ccc(CCCCCCCCCCCCCCCCCCOP(=O)([O-])OCC[N+](C)(C)C)cc4)[C@@H](NC(=O)c4ccccc4)c4ccccc4)C(C)=C1C3(C)C)[C@]1(OC(C)=O)CO[C@@H]1C[C@@H]2O [CLR1603]
reduction of cancer cell line viability [1]: capable of reducing cell viability
Early Apoptotic (MDA-MB-468 cells; 1 uM, 48 hrs (Table 8)): 1.4 % of total cells
Late Apoptotic (MDA-MB-468 cells; 1 uM, 48 hrs (Table 8)): 4.78 % of total cells
Live (cell viability) (MDA-MB-468 cells; 1 uM, 48 hrs (Table 8)): 81.4 % of total cells
Necrotic (MDA-MB-468 cells; 1 uM, 48 hrs (Table 8)): 12.4 % of total cells
Early Apoptotic (MDA-MB-468 cells; 1 uM, 72 hrs): 6.74 % of total cells
Late Apoptotic (MDA-MB-468 cells; 1 uM, 72 hrs): 49.1 % of total cells
Live (cell viability) (MDA-MB-468 cells; 1 uM, 72 hrs): 22.2 % of total cells
Necrotic (MDA-MB-468 cells; 1 uM, 72 hrs): 22 % of total cells
Early Apoptotic (MDA-MB-468 cells; 5 uM, 72 hrs): 2.65 % of total cells
Late Apoptotic (MDA-MB-468 cells; 5 uM, 72 hrs): 55.2 % of total cells
Live (cell viability) (MDA-MB-468 cells; 5 uM, 72 hrs): 19.7 % of total cells
Necrotic (MDA-MB-468 cells; 5 uM, 72 hrs): 22.5 % of total cells
